IC50 data for 30 molecules are collected here from patent US9073882B2, “Inhibitors of the renal outer medullary potassium channel” (Merck Sharp & Dohme Corp., priority 2010, dated 2015).

One assay deals with hROMK1 (Kir1.1) (Homo sapiens (Human), UniProt P48048). The assay is described as follows: ^86Rb^+ Efflux Assay. The format is cell-based. The note with it: CHO-DHFR- cells stably expressing hROMK1 (Kir1.1).
The next assay has as its target hROMK (hKir1.1) (Homo sapiens (Human), UniProt P48048). Briefly: Thallium Flux Assay. The format is cell-based. The settings on record: Table 2; HEK293 cells stably expressing hROMK (hKir1.1).
The mark [1] stands for this setting: value in parentheses at the end of each Example, read-out: IC50 in the ^86Rb^+ Efflux Assay.
Where [2] appears, read: Table 1, read-out: ^86Rb^+ Efflux Assay IC50.

Usually IC50 stands for the point on the concentration scale where inhibition reaches its midpoint.

Like-named read-outs stand apart in the source and are kept apart here.

Chain of hROMK1 (Kir1.1) (P48048 whole entry): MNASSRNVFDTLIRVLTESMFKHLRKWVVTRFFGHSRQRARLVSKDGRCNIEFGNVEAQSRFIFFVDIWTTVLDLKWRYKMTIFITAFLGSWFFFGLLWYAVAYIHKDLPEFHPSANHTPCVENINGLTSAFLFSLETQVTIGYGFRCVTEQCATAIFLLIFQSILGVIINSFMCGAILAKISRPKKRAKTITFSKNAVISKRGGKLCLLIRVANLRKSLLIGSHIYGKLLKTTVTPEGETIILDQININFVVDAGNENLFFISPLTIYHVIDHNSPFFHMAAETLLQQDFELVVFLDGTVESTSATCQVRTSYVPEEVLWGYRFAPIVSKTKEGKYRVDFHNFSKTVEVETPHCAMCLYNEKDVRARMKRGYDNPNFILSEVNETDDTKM
Chain of hROMK (hKir1.1) (P48048 whole entry): as above

Turning to `COc1cc(CCN2CCN(CCc3ccc4c(c3C)COC4=O)CC2)c(F)cc1C#N` [Example 53, 5-Fluoro-2-methoxy-4-(2-{4-[2-(4-methyl-1-oxo-1,3-dihydro-2-benzofuran-5-yl)ethyl]piperazin-1-yl}ethyl)benzonitrile], the IC50 on hROMK1 (Kir1.1) (setting [1]) is 34 nM.
On the same count and under the same terms, to `COc1cc(CCN2CCN(CCc3cc(OC)c(C#N)cc3F)CC2)c(F)cc1C#N` [Example 54, 4,4′-(Piperazine-1,4-diyldiethane-2,1-diyl)bis(5-fluoro-2-methoxybenzonitrile)] belongs 340 nM.
Regarding `COc1cc(CCN2CCN(CCc3ccc4c(c3)COC4=O)CC2C(F)(F)F)ccc1C#N` (centres unmarked) [Example 56, 2-Methoxy-4-(2-{4-[2-(1-oxo-1,3-dihydro-2-benzofuran-5-yl)ethyl]-2-(trifluoromethyl)piperazin-1-yl}ethyl)benzonitrile], the IC50 on hROMK1 (Kir1.1) (setting [1]) and on hROMK1 (Kir1.1) (setting [2]) was 270 nM each time.
As to `COc1cc(CCN2CCN(CCc3ccc4c(c3)CC(C)OC4=O)CC2)ccc1C#N` (centres unmarked) [Example 57, 2-Methoxy-4-(2-{4-[2-(3-methyl-1-oxo-3,4-dihydro-1H-isochromen-6-yl)ethyl]piperazin-1-yl}ethyl)benzonitrile], the IC50 on hROMK1 (Kir1.1) (setting [1]) and on hROMK1 (Kir1.1) (setting [2]) was 98 nM in each case.
On to `C[C@H]1Cc2cc(CCN3CCN(CCc4ccc5c(c4)C[C@H](C)OC5=O)CC3)ccc2C(=O)O1` [Example 58, (3S,3′S)-6,6′-(Piperazine-1,4-diyldiethane-2,1-diyl)bis(3-methyl-3,4-dihydro-1H-isochromen-1-one)], for which the IC50 at hROMK1 (Kir1.1) (setting [1]) turned out to be 650 nM; against hROMK (hKir1.1) it was 240 nM.
Regarding `Cc1c(CCN2CCN(CCc3ccc4c(c3C)COC4=O)CC2)ccc2c1COC2=O` [Example 59, 5,5′-(Piperazine-1,4-diyldiethane-2,1-diyl)bis(4-methyl-2-benzofuran-1(3H)-one)], the IC50 on hROMK1 (Kir1.1) (setting [1]) and at hROMK1 (Kir1.1) (setting [2]) was 76 nM throughout.
In the case of `COc1cc(CCN2CCN(CCc3ccc4c(c3)COC4=O)CC2)c(Cl)cc1C#N` [Example 61, 5-Chloro-2-methoxy-4-(2-{4-[2-(1-oxo-1,3-dihydro-2-benzofuran-5-yl)ethyl]piperazin-1-yl}ethyl)benzonitrile], the IC50 at hROMK1 (Kir1.1) (setting [1]) stood at 94 nM.
Consider `N#Cc1ccc(CCN2CCN(CCc3ccc4c(c3)COC4=O)CC2)cc1OC(F)F` [Example 63, 2-(Difluoromethoxy)-4-(2-{4-[2-(1-oxo-1,3-dihydro-2-benzofuran-5-yl)ethyl]piperazin-1-yl}ethyl)benzonitrile], for which the IC50 on hROMK1 (Kir1.1) (setting [1]) was determined as 150 nM.
Still for that read-out and setting: under `N#Cc1ccc2c(c1)CCC(N1CCN(CCc3ccc4c(c3)COC4=O)CC1)C2` (centres unmarked) [Example 66, 6-{4-[2-(1-Oxo-1,3-dihydro-2-benzofuran-5-yl)ethyl]piperazin-1-yl}-5,6,7,8-tetrahydronaphthalene-2-carbonitrile] stands 50 nM.
With `Cc1c(CCN2CCN(CCc3ccc(C#N)c(OC(F)(F)F)c3)CC2)ccc2c1COC2=O` [Example 69, 2-Trifluoromethoxy-4-(2-{4-[2-(4-methyl-1-oxo-1,3-dihydro-2-benzofuran-5-yl)ethyl]piperazin-1-yl}ethyl)benzonitrile], on hROMK1 (Kir1.1) (setting [1]), the IC50 was 200 nM.
For `Cc1c(CCN2CCN(CCc3ccc(C#N)c(Cl)c3)CC2)ccc2c1COC2=O` [Example 71, 2-Chloro-4-(2-{4-[2-(4-methyl-1-oxo-1,3-dihydro-2-benzofuran-5-yl)ethyl]piperazin-1-yl}ethyl)benzonitrile], the IC50 at hROMK1 (Kir1.1) (setting [1]) turned out to be 35 nM.
With `COc1c(C#N)ccc(CCN2CCN(CCc3ccc4c(c3)COC4=O)CC2)c1F` [Example 72, 3-Fluoro-2-methoxy-4-(2-{4-[2-(1-oxo-1,3-dihydro-2-benzofuran-5-yl)ethyl]piperazin-1-yl}ethyl)benzonitrile], the IC50 at hROMK1 (Kir1.1) (setting [1]) turned out to be 92 nM.
`COc1c(C#N)ccc(CCN2CCN(CCc3ccc4c(c3C)COC4=O)CC2)c1F` [Example 73, 3-Fluoro-2-methoxy-4-(2-{4-[2-(4-methyl-1-oxo-1,3-dihydro-2-benzofuran-5-yl)ethyl]piperazin-1-yl}ethyl)benzonitrile]: on hROMK1 (Kir1.1) (setting [1]), the IC50 is 91 nM.
`Cc1c(CCN2CCN(CCc3ccc(C#N)c4ccccc34)CC2)ccc2c1COC2=O` [Example 74, 4-(2-{4-[2-(4-Methyl-1-oxo-1,3-dihydro-2-benzofuran-5-yl)ethyl]piperazin-1-yl}ethyl)naphthalene-1-carbonitrile]: the IC50 at hROMK1 (Kir1.1) (setting [1]) and on hROMK1 (Kir1.1) (setting [2]) was 160 nM in each case.
In the case of `Cc1c(CCN2CCN(CCc3c(F)cc(C#N)c(F)c3F)CC2)ccc2c1COC2=O` [Example 75, 2,3,5-Trifluoro-4-(2-{4-[2-(4-methyl-1-oxo-1,3-dihydro-2-benzofuran-5-yl)ethyl]piperazin-1-yl}ethyl)benzonitrile], the IC50 at hROMK1 (Kir1.1) (setting [1]) was 230 nM.
The same measure, in the same setting: to `CCOc1cc(CCN2CCN(CCc3ccc4c(c3C)COC4=O)CC2)ccc1C#N` [Example 77, 2-Ethoxy-4-(2-{4-[2-(4-methyl-1-oxo-1,3-dihydro-2-benzofuran-5-yl)ethyl]piperazin-1-yl}ethyl)benzonitrile] belongs 74 nM; to `N#Cc1cc(Cl)c(CCN2CCN(CCc3ccc4c(c3)COC4=O)CC2)cc1F` [Example 78, 5-Chloro-2-fluoro-4-(2-{4-[2-(1-oxo-1,3-dihydro-2-benzofuran-5-yl)ethyl]piperazin-1-yl}ethyl)benzonitrile], 76 nM; to `Cc1c(CCN2CCN(CCc3cc(F)c(C#N)cc3Cl)CC2)ccc2c1COC2=O` [Example 79, 5-Chloro-2-fluoro-4-(2-{4-[2-(4-methyl-1-oxo-1,3-dihydro-2-benzofuran-5-yl)ethyl]piperazin-1-yl}ethyl)benzonitrile], 48 nM.
As to `COc1cc(CCN2CCN(CCc3ccc4c(c3C)COC4=O)CC2)c(Cl)cc1C#N` [Example 80, 5-Chloro-2-methoxy-4-(2-{4-[2-(4-methyl-1-oxo-1,3-dihydro-2-benzofuran-5-yl)ethyl]piperazin-1-yl}ethyl)benzonitrile], the IC50 on hROMK1 (Kir1.1) (setting [1]) is 71 nM.
For `Cc1c(CCN2CCN(CCc3ccc4c(c3)COC4=O)CC2)ccc(C#N)c1F` [Example 81, 2-Fluoro-3-methyl-4-(2-{4-[2-(1-oxo-1,3-dihydro-2-benzofuran-5-yl)ethyl]piperazin-1-yl}ethyl)benzonitrile], the IC50 on hROMK1 (Kir1.1) (setting [1]) is 80 nM.
The same measure, in the same setting: to `Cc1c(CCN2CCN(CCc3ccc4c(c3C)COC4=O)CC2)ccc(C#N)c1F` [Example 82, 2-Fluoro-3-methyl-4-(2-{4-[2-(4-methyl-1-oxo-1,3-dihydro-2-benzofuran-5-yl)ethyl]piperazin-1-yl}ethyl)benzonitrile] belongs 63 nM; to `COc1c(C#N)ccc(CCN2CCN(CCc3ccc4c(c3)COC4=O)CC2)c1C` [Example 83, 2-Methoxy-3-methyl-4-(2-{4-[2-(1-oxo-1,3-dihydro-2-benzofuran-5-yl)ethyl]piperazin-1-yl}ethyl)benzonitrile], 180 nM.
Turning to `COc1c(C#N)ccc(CCN2CCN(CCc3ccc4c(c3C)COC4=O)CC2)c1C` [Example 84, 2-Methoxy-3-methyl-4-(2-{4-[2-(4-methyl-1-oxo-1,3-dihydro-2-benzofuran-5-yl)ethyl]piperazin-1-yl}ethyl)benzonitrile], the IC50 at hROMK1 (Kir1.1) (setting [1]) amounted to 78 nM.
Turning to `N#Cc1ccc(CCN2CCN(CCc3ccc4c(c3)COC4=O)CC2)c(Cl)c1F` [Example 85, 3-Chloro-2-fluoro-4-(2-{4-[2-(1-oxo-1,3-dihydro-2-benzofuran-5-yl)ethyl]piperazin-1-yl}ethyl)benzonitrile], the IC50 on hROMK1 (Kir1.1) (setting [1]) came to 130 nM.
In the case of `Cc1c(CCN2CCN(CCc3ccc(C#N)c(F)c3Cl)CC2)ccc2c1COC2=O` [Example 86, 3-Chloro-2-fluoro-4-(2-{4-[2-(4-methyl-1-oxo-1,3-dihydro-2-benzofuran-5-yl)ethyl]piperazin-1-yl}ethyl)benzonitrile], the figures for the IC50 on hROMK1 (Kir1.1) (setting [1]) and on hROMK (hKir1.1) were 78 nM and 17 nM, respectively.
Turning to `COc1c(C#N)ccc(CCN2CCN(CCc3ccc4c(c3)COC4=O)CC2)c1Cl` [Example 87, 3-Chloro-2-methoxy-4-(2-{4-[2-(1-oxo-1,3-dihydro-2-benzofuran-5-yl)ethyl]piperazin-1-yl}ethyl)benzonitrile], the IC50 on hROMK1 (Kir1.1) (setting [1]) is 160 nM.
In the case of `COc1c(C#N)ccc(CCN2CCN(CCc3ccc4c(c3C)COC4=O)CC2)c1Cl` [Example 88, 3-Chloro-2-methoxy-4-(2-{4-[2-(4-methyl-1-oxo-1,3-dihydro-2-benzofuran-5-yl)ethyl]piperazin-1-yl}ethyl)benzonitrile], the IC50 on hROMK1 (Kir1.1) (setting [1]) came to 83 nM.
On the same count and under the same terms, to `Cc1c(CCN2CCN(CC3CCOc4cc(C#N)ccc43)CC2)ccc2c1COC2=O` (centres unmarked) [Example 91, 4-({4-[2-(4-Methyl-1-oxo-1,3-dihydro-2-benzofuran-5-yl)ethyl]piperazin-1-yl}methyl)-3,4-dihydro-2H-chromene-7-carbonitrile] belongs 180 nM; to `Cc1c(C(C)CN2CCN(CC(C)c3ccc4c(c3C)COC4=O)CC2)ccc2c1COC2=O` (centres unmarked) [Example 93], 220 nM.
As for `Cc1c(CCN2CCN(CC(C)c3ccc4c(c3C)COC4=O)CC2)ccc2c1COC2=O` (centres unmarked) [Example 94, 4-Methyl-5-(1-(4-(2-(4-methyl-1-oxo-1,3-dihydroisobenzofuran-5-yl)ethyl)piperazin-1-yl)propan-2-yl)isobenzofuran-1(3H)-one], the IC50 on hROMK1 (Kir1.1) (setting [1]) is 34 nM; on hROMK1 (Kir1.1) (setting [2]), 34 nM; against hROMK (hKir1.1), 12 nM.
